Reference: patent publication US11634466B2, “Musclin peptides and methods of use thereof” (UNIVERSITY OF IOWA RESEARCH FOUNDATION, priority 2016, dated 2023)

Test system: mTORC1 targets (4EBP1, P70S6K)
Assay: Western blot of mTOR targets in skeletal muscle after musclin infusion
Type: in vivo
Settings: WT mice
Protocol: Western blotting: Whole cell protein extracts were prepared by homogenizing skeletal muscle tissue in NaCl 150 mM, Tris-HCl 50 mM (pH 7.8), supplemented with 1.5% Triton X-100, protease and phosphatase inhibitors (Roche). Nuclear extracts were obtained using the Subcellular Protein Fractionation Kit for Tissues (Thermo Scientific).
Electrophoresis was performed on 3-8% gradient Nu-Page Tris-Acetate or 10% Nu-Page Bis-Tris gels and transferred to 0.2 μm Sequi-Blot PVDF membranes (Bio-Rad). The membranes were blotted with total AKT1 and phospho-AKT1([…], T308, Cell Signaling), FOXO1 (Cell Signaling), total OXPHOS (rodent, Abcam), musclin (custom rabbit IgG produced against partial mouse musclin sequence NH2-sfsgfgspldrlsagsvehrgkqrkavdhskkr-COOH (SEQ ID NO: 4), corresponding to amino acids 80-112, Gen Bank ID: AAS87598.1, Anaspec, Fremont, Calif.), and GAPDH (Santa Cruz Biotechnologies) antibodies. Densitometric analysis of western blots was performed using Adobe Photoshop (Adobe Systems, San Jose, Calif.).
These findings are paralleled by more pure glycolytic fibers and greater fatigability in tibialis anterior (TA) muscles of exercise-trained Ostn-KO vs. WT mice (FIGS. 13A-13C). […] GSK3β phosphorylation is associated with increased autophosphorylation of mTOR at S2481 (FIGS. 14A-14B). Furthermore, consistent with the known activating effect of GSK3β inhibition on mTORC1, we find increased phosphorylation of the mTOR targets 4EBP1, P70S6K and ULK1 in skeletal muscles of trained WT vs. Ostn-KO mice 1 h after last exercise (FIGS. 15A-15B). […] We also find that skeletal muscle autophagy flux 1 h after last exercise is increased in exercise-trained Ostn-KO vs. WT, as reflected in higher LC3A II/I ratio and lower expression of P62 on western blots (FIGS. 16A-16G).

[1] = musclin 1 ng/g/h i.p. by osmotic pump for 7 d, skeletal muscle western blot, n=3

Substance: H-SFSGFGSPLDRLSAGSVEHRGKQRKAVDHSKKR-OH [musclin]
- 4EBP1/GAPDH [1]: 1.78±0.05
- P70S6K/GAPDH [1]: 1.73±0.03
- p-4EBP1/total 4EBP1 [1]: 0.59±0.07
- p-P70S6K/total P70S6K [1]: 0.32±0.06
- phosphorylation of mTORC1 targets (musclin 1 ng/g/h i.p. for 7 d vs. saline-treated mice): greater phosphorylation
